Reference: the NIST ThermoML archive (doi:10.1016/j.tca.2016.11.017)
Numbers after ± are expanded uncertainties.

Assays:
[1] = Molar enthalpy of transition or fusion; conditions: DSC
[2] = for mass density: 103 K, 101.33 kPa, X-ray diffraction; for Normal melting temperature: DTA

Row | SMILES | Molar enthalpy of transition or fusion ([1]; Crystal) | mass density ([2]; Crystal) | Normal melting temperature ([2]; Crystal) | Molar enthalpy of transition or fusion ([1]; Crystal 1) | Molar enthalpy of transition or fusion ([1]; Crystal 2) | Normal melting temperature ([2]; Crystal 1) | Normal melting temperature ([2]; Crystal 2)
1 | CO[C@H](C(=O)O)c1ccccc1 [(S)-2-methoxy-2-phenylacetic acid] | 4.51 ± 0.908 kcal/mol | 1311 ± 7 kg/m3 | 69.30 ± 0.5 °C |  |  |  | 
2 | CO[C@H](C(=O)[O-])c1ccccc1.C[C@@H]([NH3+])C1CCCCC1 | 10.9 ± 2.2 kcal/mol |  | 187.40 ± 0.5 °C |  |  |  | 
3 | CO[C@H](C(=O)[O-])c1ccccc1.C[C@H]([NH3+])C1CCCCC1 |  | 1149 ± 6 kg/m3 |  | 7.31 ± 1.48 kcal/mol | 9.16 ± 1.84 kcal/mol | 162.90 ± 0.5 °C | 166.30 ± 0.5 °C
4 | COC(C(=O)O)c1ccccc1 (configuration not stated) [2-methoxy-2-phenylacetic acid] | 6 ± 1.2 kcal/mol |  | 70.60 ± 0.5 °C |  |  |  | 
